# Experimental data: patent US5006650A, “Novel N-1 substituted beta-lactams as antibiotics” (The Upjohn Company, priority 1989, dated 1991)
# Columns and labels:
# Assay in all cases: MIC, agar dilution in Mueller Hinton Agar
# Format in all cases: cell-based
# [1] = tested on: Escherichia Coli 9451; conditions: COLI9451, culture 9451, MHA, 35° C., 20 hours, read-out: Minimum Inhibitory Concentration
# Procedure: (§1) The compounds of this invention and their respective pharmacologically acceptable salts have antibiotic activity against a variety of gram-negative bacteria including Escherichia coli, Klebsiella pneumoniae, and Pseudomonas aeruginosa. The compounds are useful for treating bacterial infections in animals, including and most preferably humans. Compounds of the invention are tested for in vitro antimicrobial activity using standard testing procedures such as the determination of minimum inhibitory concentration (MIC) by methods described in "Methods for Dilution Antimicrobial Susceptibility Tests for Bacteria That Grow Aerobically" (M7-A) Published December 1985 by the National Committee for Clinical Laboratory Standards, 771 East Lancaster Avenue, Villanova, Pa. 19084. Briefly, MIC values are determined in unsupplemented Mueller Hinton Agar (MHA). The compounds tested are diluted serially into molten MHA at 47 C. The agar is poured into petri dishes and allowed to harden. The various bacteria used for testing are grown overnight on MHA at 35 C. and transferred to Tryptiease Soy Broth (TSB) until a turbidity of 0.5 McFarland standard is obtained. The bacteria are diluted one to twenty in TSB and inoculated on the plates (1 μl using a Steers replicator).
# [2] = tested on: Pseudomonas Aeruginosa 231; conditions: culture 231, MHA, 35° C., 20 hours, read-out: Minimum Inhibitory Concentration
# Procedure: as §1
# [3] = tested on: Klebsiella Oxytoca 9383; conditions: OXYTOCA9383, culture 9383, MHA, 35° C., 20 hours, read-out: Minimum Inhibitory Concentration
# Procedure: as §1
# [4] = tested on: Enterobacter Cloacae 9382; conditions: CLOACAE9382, culture 9382, MHA, 35° C., 20 hours, read-out: Minimum Inhibitory Concentration
# Procedure: as §1
# [5] = tested on: Staphylococcus Aursus 6685; conditions: AURSUS6685, culture 6685, MHA, 35° C., 20 hours, read-out: Minimum Inhibitory Concentration
# Procedure: as §1
# [6] = tested on: Escherichia Coli 9379; conditions: COLI9379, culture 9379, MHA, 35° C., 20 hours, read-out: Minimum Inhibitory Concentration
# Procedure: as §1
# [7] = tested on: Enterobacter Cloacae 9381; conditions: CLOACAE9381, culture 9381, MHA, 35° C., 20 hours, read-out: Minimum Inhibitory Concentration
# Procedure: as §1
# [8] = tested on: Proteus Vulgaris 9679; conditions: culture 9679, MHA, 35° C., 20 hours, read-out: Minimum Inhibitory Concentration
# Procedure: as §1
# [9] = tested on: Citrobacter Freundli 3507; conditions: culture 3507, MHA, 35° C., 20 hours, read-out: Minimum Inhibitory Concentration
# Procedure: as §1
# [10] = tested on: Streptococcus Faecalis 694; conditions: Enterococcus faecalis, culture 694, MHA, 35° C., 20 hours, read-out: Minimum Inhibitory Concentration
# Procedure: as §1
# [11] = tested on: Streptococcus Pneumoniae 41; conditions: culture 41, MHA, 35° C., 20 hours, read-out: Minimum Inhibitory Concentration
# Procedure: as §1
# [12] = tested on: Klebsiella Pneumoniae 58; conditions: culture 58, MHA, 35° C., 20 hours, read-out: Minimum Inhibitory Concentration
# Procedure: as §1
# [13] = tested on: Staphylococcus Aureus 9218; conditions: AUREUS9218, culture 9218, MHA, 35° C., 20 hours, read-out: Minimum Inhibitory Concentration
# Procedure: as §1
# [14] = tested on: Pseudomonas Aeruginosa 9191; conditions: culture 9191, MHA, 35° C., 20 hours, read-out: Minimum Inhibitory Concentration
# Procedure: as §1
# [15] = tested on: Escherichia Coli 9380; conditions: COLI9380, culture 9380, MHA, 35° C., 20 hours, read-out: Minimum Inhibitory Concentration
# Procedure: as §1
# [16] = tested on: Serratia Marcescens 6888; conditions: culture 6888, MHA, 35° C., 20 hours, read-out: Minimum Inhibitory Concentration
# Procedure: as §1
# [17] = tested on: Klebsiella Oxytoca 9384; conditions: OXYTOCA9384, culture 9384, MHA, 35° C., 20 hours, read-out: Minimum Inhibitory Concentration
# Procedure: as §1
# [18] = tested on: Streptococcus Pyogenes 152; conditions: culture 152, MHA, 35° C., 20 hours, read-out: Minimum Inhibitory Concentration
# Procedure: as §1
# [19] = tested on: Staphylococcus Aureus 3665; conditions: AUREUS3665, culture 3665, MHA, 35° C., 20 hours, read-out: Minimum Inhibitory Concentration
# Procedure: as §1
Compound,MIC [1] [µg/mL],MIC [2] [µg/mL],MIC [3] [µg/mL],MIC [4] [µg/mL],MIC [5] [µg/mL],MIC [6] [µg/mL],MIC [7] [µg/mL],MIC [8] [µg/mL],MIC [9] [µg/mL],MIC [10] [µg/mL],MIC [11] [µg/mL],MIC [12] [µg/mL],MIC [13] [µg/mL],MIC [14] [µg/mL],MIC [15] [µg/mL],MIC [16] [µg/mL],MIC [17] [µg/mL],MIC [18] [µg/mL],MIC [19] [µg/mL]
CC(C)(ON=C(C(=O)NC1CN(C(=O)NS(=O)(=O)n2ncn(NC(=O)c3cc(=O)c(O)c[nH]3)c2=O)C1=O)c1csc(N)n1)C(=O)O (centres unmarked) [Compound U-77938],> 0.015,0.125,0.125,0.5,> 128,> 0.015,16,0.03,0.06,> 128,128,0.25,> 128,0.25,> 0.015,0.03,0.06,16,> 128
Nc1nc(C(=NOCC(=O)O)C(=O)N[C@H]2CN(C(=O)NS(=O)(=O)n3ncn(NC(=O)c4cc(=O)c(O)c[nH]4)c3=O)C2=O)cs1 [Compound U-78284],0.015,2,0.25,0.25,> 64,> 0.008,16,0.125,0.06,> 64,64,0.25,> 64,2,> 0.008,0.03,0.03,32,> 64
